Test results published in US7268245B2, “Multinuclear platinum compounds” (Sonus Pharmaceuticals, Inc., priority 2004, dated 2007).
Read-outs that look alike come from different tables or passages of the source.

How the values were obtained:
Type in all cases: cell-based
[1] = system: A2780 ovarian cancer cell line; test: MTS cell viability assay, growth inhibition, A2780; settings: A2780 cells
Protocol: (§1) Cytotoxicity was measured in six cell lines: two colorectal carcinoma cell lines (HT29 and HCT-116); two small cell lung cancer cell lines (NCI-H69 and NCI-H69/AR); and two ovarian cancer cell lines (A2780 and A2780/DPPt). Viable cell number was measured using the MTS cell viability assay ([…] 96 AQueous One Solution Cell Proliferation Assay kit available from Promega, US). […] Cisplatin was prepared in saline. […] All tumor lines were propagated under sterile conditions and incubated at 37° C. in HEPA-filtered CO2 tissue culture incubators with 5% CO2 and 95% humidity in colorless RPMI 1640 medium (Mediatech, Herndon, Va.) containing 5% fetal bovine serum (complete medium). The ovarian and colon tumor cell lines were plated in microtiter plates at a density of 5,000 cells per well. The lung lines were plated at a density of 10,000 cells per well. Viable cell number was measured by the MTS dye conversion assay after a total of 72 hours of treatment. […] The plates were incubated for four hours at 37° C. The absorbance was measured at 490 nm on a Coulter microplate reader.

[2] = system: A2780/DDPT ovarian cancer cell line (platinum resistant); test: MTS cell viability assay, growth inhibition, A2780/DDPT
Protocol: as §1

[3] = system: HCT-116 colorectal carcinoma cell line; test: MTS cell viability assay, growth inhibition, HCT-116; settings: HCT-116 cells, 72 hours of treatment
Protocol: as §1

[4] = system: NCI-H69 small cell lung cancer cell line; test: MTS cell viability assay, growth inhibition, NCI-H69; settings: NCI-H69 cells, 72 hours of treatment
Protocol: as §1

[5] = system: NCI-H69/AR small cell lung cancer cell line; test: MTS cell viability assay, growth inhibition, NCI-H69/AR; settings: NCI-H69/AR cells, 72 hours of treatment
Protocol: as §1

[6] = system: HT29 colorectal carcinoma cell line; test: MTS cell viability assay, growth inhibition, HT29; settings: HT29 cells, 72 hours of treatment
Protocol: as §1

[7] = method of Example 10 (text of Examples 8 and 9), read-out: GI50 for A2780
[8] = A2780 (platinum resistant) cells, method of Example 10 (text of Examples 8 and 9), read-out: GI50 for A2780 (platinum resistant)
[9] = 72 hours of treatment, MTS, read-out: Growth Inhibition (GI50) A2780
[10] = A2780/DDPT cells, 72 hours of treatment, MTS, read-out: Growth Inhibition (GI50) A2780/DDPT

Compound	GI50 [1, 7] [µM]	GI50 [2, 8] [µM]	GI50 [3] [µM]	GI50 [4] [µM]	GI50 [5] [µM]	GI50 [1, 9] [µM]	GI50 [6] [µM]	GI50 [2, 10] [µM]
triethylenetetraamine-N,N,N′,N″,N′″,N′″-hexaacetic-acid-tetraplatinum [TTHA-tetraplatinum]	7	50	–	–	–	–	–	–
ethylene glycol-bis-(β-aminoethyl)-N,N,N′,N′-tetraacetic-acid-diplatinum [EGTA-diplatinum]	–	–	> 100	> 100	> 100	> 100	–	–
diethylenetriamine-N,N,N′,N″,N″-pentaacetic-acid-diplatinum [DTPA-diplatinum]	–	–	41	18	23	19	54	62
N.N.[Cl][Pt][Cl] [Cisplatin, cis-diaminedichloroplatinum (II), reference compound]	15	57	43	15	15	15	61	57
triethylene-tetraamine-N,N,N′,N″,N′″,N′″-hexaacetic-acid-diplatinum [TTHA-diplatinum]	–	–	23	9.3	16	7.1	53	48
1,3-Diamino-2-hydroxypropane-N,N,N′,N′-tetraacetic-acid-diplatinum [DAPTA-diplatinum]	–	–	81	27	21	20	> 100	> 100
diethylenetriamine-N,N,N′,N″,N″-pentaacetic-acid-triplatinum [DTPA-triplatinum]	19	63	–	–	–	–	–	–
